Reference: PubChem BioAssay (NCI)
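The compound was tested at five concentrations on cells cultured in 96-well plates, with a 48-hour exposure period. GI50 is the concentration that inhibits growth by half. Definition used: TGI = concentration required for complete inhibition of growth.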

Legend:
Assay in all cases: NCI tumour cell line growth inhibition, 48 h
[1] = test system: 786-0 renal
[2] = test system: CAKI-1 renal
[3] = test system: EKVX NSCLC
[4] = test system: HT29 colon
[5] = test system: M14 melanoma
[6] = test system: MALME-3M melanoma
[7] = test system: NCI-H460 lung
[8] = test system: OVCAR-8 ovarian
[9] = test system: U251 CNS
[10] = test system: UO-31 renal

Structure (SMILES) | TGI [1] [µM] | TGI [2] [µM] | TGI [3] [µM] | TGI [4] [µM] | TGI [5] [µM] | TGI [6] [µM] | TGI [7] [µM] | TGI [8] [µM] | TGI [9] [µM] | TGI [10] [µM] | GI50 [1] [µM] | GI50 [2] [µM] | GI50 [3] [µM] | GI50 [4] [µM] | GI50 [5] [µM] | GI50 [6] [µM] | GI50 [7] [µM] | GI50 [8] [µM] | GI50 [9] [µM] | GI50 [10] [µM]
Cc1c(Cl)ccc2c1NC(=O)C2(O)C1Cc2ccccc2C1=O (stereo not given) | > 100 | > 100 | > 100 | > 100 | > 100 | > 100 | > 100 | > 100 | > 100 | > 100 |  |  |  |  |  |  |  |  |  | 
Cc1ccc(S(=O)(=O)n2cc(C(=O)C(=O)Nc3ccncc3)c3ccccc32)cc1 | > 73.2 | > 100 | > 100 | 12.1 | > 100 | > 100 | 96.8 | > 100 | > 56.1 | > 100 | 3.89 | 1.82 | 3.23 | 0.464 | 0.907 | 43 | 7.05 | 3.1 | 1.4 | 5.45
C=CCN(N=O)C(=O)N(CCC)CCCCC(NC(C)=O)C(=O)NCc1ccccc1 (stereo not given) | > 100 | > 100 | > 100 | 83.6 | > 100 | > 100 | > 100 | > 100 | > 100 | > 100 |  |  |  |  |  |  |  |  |  | 
C/C(=C\c1ccn(-c2ccc(N)cc2)n1)[C@@H]1C[C@@H]2O[C@]2(C)CCC[C@H](C)[C@H](O)[C@@H](C)C(=O)C(C)(C)[C@@H](O)CC(=O)O1 | > 50 | > 50 | > 50 | > 50 |  | > 50 | > 50 | > 50 | > 50 | > 50 | 0.174 | 0.202 | 0.256 | 0.0187 |  | 0.125 | 0.0202 | 0.0481 | 0.0321 | 0.251
CSC(=S)NNC(=O)c1ccncc1 | 30.8 | 56.2 | 57.6 | 37.8 | 42.3 | 35.3 | > 100 | 40.6 | 41.9 | 31.6 |  |  |  |  |  |  |  |  |  | 
COc1cccc2c1c1nc3cc(C)c(C)cc3nc1n2CCN(C)C | 5.53 | 6.34 | 7.33 | 10.7 | 3.07 | 2.62 | 10.9 | 13.3 | 11.7 | 2.37 | 1.35 | 0.946 | 2.29 | 1.68 | 1.24 | 1.14 | 1.09 | 0.798 | 2.21 | 0.337
CN=S(=O)(C[C@]1(O)CC2OC1C1OC(C)(C)OC21)c1ccccc1 (stereo not given in full) | > 100 | > 100 | > 100 | > 100 | > 100 | > 100 | > 100 | > 100 | > 100 |  |  |  |  |  |  |  |  |  |  | 
[N-]=[N+]=CC(=O)OCC(N)C(=O)O (stereo not given) | > 100 | > 100 | > 100 | > 100 | > 100 | > 100 | 16.4 | > 100 | > 100 | > 100 | 0.856 | 0.429 | 3.13 | 0.277 | 0.809 | 6.56 | 1.27 | 0.923 | 0.778 | 4.92
COc1ccc(OC)c2cc(C3(C)SCCCS3)ccc12 | > 100 | > 100 | > 100 | > 100 | > 100 | > 100 | > 100 | > 100 | > 100 | > 100 |  |  |  |  |  |  |  |  |  | 
CCOC(=O)c1cc2ncccc2c2ccccc12 | > 100 | > 100 | > 100 | > 100 | > 100 | > 100 | > 100 | > 100 | > 100 | > 100 |  |  |  |  |  |  |  |  |  | 
COc1cc2c(cc1OC)[C@@]1(C)C(=O)c3cc4c(cc3[C@H]1N(C)C2=O)OCO4 | > 100 | > 100 | > 100 | > 100 | > 100 | > 100 | > 100 | > 100 | > 100 | > 100 | 54.3 | 37.3 | 55 | 88 | 82.6 | 75.1 | 37.7 | 29.3 | 34.3 | 34.8
O=C(CC(=O)C(F)(F)F)c1csc2ccccc12 | > 100 |  | > 100 |  | 68.9 | 67.6 | > 100 | 60.2 | > 100 | > 100 |  |  |  |  |  |  |  |  |  | 
O=C(/C=C\Sc1nccc(C(F)(F)F)n1)c1ccc(Br)cc1 | 34.2 | 35.1 | 67.4 | 41.6 | 35.5 | 43.9 | > 100 | > 100 | 72.8 | 34 | 16.3 | 18 | 23.3 | 19.6 | 17.9 | 16.9 | > 100 | 45.9 | 25 | 18.7
Nc1nc(N)c(-c2ccc(Cl)cc2)c(CCC(=O)Nc2cccc(C(F)(F)F)c2)n1 | > 100 | > 100 | > 100 | > 100 | > 100 | > 100 | > 100 | > 100 | > 100 | > 100 |  |  |  |  |  |  |  |  |  | 
COc1cnc2c(c1)C(=O)c1c-2n(CCCN2CCN(C)CC2)c(=O)c2cc(Cl)ccc12 | 31.8 | 18.4 | 31.9 | > 100 | 3.61 | 19.5 | 13.8 | > 100 | 49.6 | 22.8 | 2.47 | 2.97 | 7.73 | 1.37 | 1.71 | 5.77 | 0.377 | 3.09 | 7.24 | 3.74
COc1ccc2c(c1)Cc1c-2c(NN)nc2ccccc12 | > 100 | > 100 | > 100 | > 100 | > 100 | > 100 | 69 | > 100 | 68.7 | > 100 | 40.4 | 39.8 | 66.1 | 31.5 | 40.1 | > 100 | 14.9 | 23.8 | 21.5 | 25.7
